Measurements taken from patent publication US20020137929A1, “1 - (3-heterocyclylphenyl) isothiourea, -isourea, -guanidine and -amidine herbicidal agents” (Intellectual Property Department, BASF Aktiengesellschaft, priority 1998, published 2002).

How the values were obtained:
CASOB (Sicklepod) = test: Postemergence herbicidal evaluation; type: in vivo, Cassia obtusifolia; settings: postemergence
How it was run: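 Compound is applied as a foliar spray to seedlings about two weeks old, formulated in equal parts acetone and water with 0.5% TWEEN 20 and delivered at 40 psi to give about 0.0156–0.500 kg per hectare. Injury is rated visually 0–9 after four to five weeks.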

[1] = test system: GLXMAW (Soybean, Williams); test: Preemergence herbicidal evaluation; type: in vivo, Glycine max, (L.) Merr. cv Williams; settings: rated 4-5 weeks after treatment
How it was run: (§1)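 Rating at 4–5 wk post-spray on a 0–9 visual scale vs control. Application: aqueous acetone, ~0.0156–0.500 kg/ha, to soil surface after seeding, preemergence.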

ORYSAT (Rice, Tebonnet) = test: Preemergence herbicidal evaluation; type: in vivo, Oryza sativa, (L.) Tebonnet; settings: rated 4-5 weeks after treatment
How it was run: as §1

[2] = test system: TRZAWR (Wheat, Winter, cv Riband); test: Preemergence herbicidal evaluation; type: in vivo, Triticum aestivum; settings: rated 4-5 weeks after treatment
How it was run: as §1

[3] = test system: SAGPY (Arrowhead (Pygmaea)); test: Preemergence weed control under flooded paddy conditions; type: in vivo, Sagittaria pygmaea; settings: rated 3-4 weeks after treatment
How it was run: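 Seeds or propagules sown in silt loam kept flooded 1.5-3 cm; compounds in 50/50 acetone/water pipetted into flood water at about 0.0313 to 0.500 kg/ha. Greenhouse; visual 0-9 rating versus untreated control 3-4 weeks after treatment.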

[4] = rate 0.0156 kg/ha, rating scale 0-9
[5] = rate 0.0313 kg/ha, rating scale 0-9
[6] = rate 0.0625 kg/ha, rating scale 0-9
[7] = rate 0.1250 kg/ha, rating scale 0-9
[8] = rate 0.2500 kg/ha, rating scale 0-9

Cn1c(C(F)(F)F)cc(=O)n(-c2cc(N=C3SCC(=O)N3C3CCOC3=O)c(Cl)cc2F)c1=O (centres unmarked) [Compound 73]
CASOB herbicidal rating (CASOB (Sicklepod); rate 0.0158 kg/ha): 1.0 | CASOB herbicidal rating (CASOB (Sicklepod); rate 0.0315 kg/ha): 7.0 | CASOB herbicidal rating (CASOB (Sicklepod); rate 0.0630 kg/ha): 7.0 | Preemergence herbicidal rating GLXMAW ([1]; rate 0.0156 kg/ha): 0.0 | Preemergence herbicidal rating GLXMAW ([1]; rate 0.0313 kg/ha): 1.0 | Preemergence herbicidal rating GLXMAW ([1]; rate 0.0625 kg/ha): 1.0 | Preemergence herbicidal rating GLXMAW ([1]; rate 0.1250 kg/ha): 1.0 | Preemergence herbicidal rating GLXMAW ([1]; rate 0.2500 kg/ha): 9.0 | Preemergence herbicidal rating ORYSAT (ORYSAT (Rice, Tebonnet); rate 0.0156 kg/ha): 0.0 | Preemergence herbicidal rating ORYSAT (ORYSAT (Rice, Tebonnet); rate 0.0313 kg/ha): 0.0 | Preemergence herbicidal rating ORYSAT (ORYSAT (Rice, Tebonnet); rate 0.0625 kg/ha): 2.0 | Preemergence herbicidal rating ORYSAT (ORYSAT (Rice, Tebonnet); rate 0.1250 kg/ha): 2.0 | Preemergence herbicidal rating ORYSAT (ORYSAT (Rice, Tebonnet); rate 0.2500 kg/ha): 4.0 | Preemergence herbicidal rating TRZAWR ([2]; rate 0.0156 kg/ha): 0.0 | Preemergence herbicidal rating TRZAWR ([2]; rate 0.0313 kg/ha): 0.0 | Preemergence herbicidal rating TRZAWR ([2]; rate 0.0625 kg/ha): 1.0 | Preemergence herbicidal rating TRZAWR ([2]; rate 0.1250 kg/ha): 3.0 | Preemergence herbicidal rating TRZAWR ([2]; rate 0.2500 kg/ha): 4.0 | SAGPY herbicidal effect rating ([3]; 0.1250 kg/ha): 3.0 | SAGPY herbicidal effect rating ([3]; 0.2500 kg/ha): 4.0

C#CC(C)N1C(=O)CSC1=Nc1cc(-n2c(=O)cc(C(F)(F)F)n(C)c2=O)c(F)cc1Cl (centres unmarked) [Compound 165, 3-{4-Chloro-2-fluoro-5-{[3-(1-methyl-2-propynyl)-4-oxo-2-thiazolidinylidene]amino}phenyl}-1-methyl-6-(trifluoromethyl)-2,4(1H,3H)-pyrimidinedione]
herbicidal rating CASOB (CASOB (Sicklepod); rate 0.0156 kg/ha): 0.0 | herbicidal rating CASOB (CASOB (Sicklepod); rate 0.0313 kg/ha): 2.0 | herbicidal rating CASOB (CASOB (Sicklepod); rate 0.0625 kg/ha): 3.0 | herbicidal rating CASOB (CASOB (Sicklepod); rate 0.1250 kg/ha): 3.0 | Preemergence herbicidal rating GLXMAW ([1]; 0.0156 kg/ha): 0.0 | Preemergence herbicidal rating GLXMAW ([1]; 0.0313 kg/ha): 0.0 | Preemergence herbicidal rating GLXMAW ([1]; 0.0625 kg/ha): 4.0 | Preemergence herbicidal rating GLXMAW ([1]; 0.1250 kg/ha): 4.0 | Preemergence herbicidal rating GLXMAW ([1]; 0.2500 kg/ha): 5.0 | Preemergence herbicidal rating GLXMAW ([1]; 0.5000 kg/ha): 6.0 | Preemergence herbicidal rating ORYSAT (ORYSAT (Rice, Tebonnet); 0.0156 kg/ha): 0.0 | Preemergence herbicidal rating ORYSAT (ORYSAT (Rice, Tebonnet); 0.0313 kg/ha): 0.0 | Preemergence herbicidal rating ORYSAT (ORYSAT (Rice, Tebonnet); 0.0625 kg/ha): 0.0 | Preemergence herbicidal rating ORYSAT (ORYSAT (Rice, Tebonnet); 0.1250 kg/ha): 1.0 | Preemergence herbicidal rating ORYSAT (ORYSAT (Rice, Tebonnet); 0.2500 kg/ha): 3.0 | Preemergence herbicidal rating ORYSAT (ORYSAT (Rice, Tebonnet); 0.5000 kg/ha): 5.0 | Preemergence herbicidal rating TRZAWR ([2]; 0.0156 kg/ha): 0.0 | Preemergence herbicidal rating TRZAWR ([2]; 0.0313 kg/ha): 0.0 | Preemergence herbicidal rating TRZAWR ([2]; 0.0625 kg/ha): 0.0 | Preemergence herbicidal rating TRZAWR ([2]; 0.1250 kg/ha): 1.0 | Preemergence herbicidal rating TRZAWR ([2]; 0.2500 kg/ha): 2.0 | Preemergence herbicidal rating TRZAWR ([2]; 0.5000 kg/ha): 4.0 | herbicidal effect rating, SAGPY ([3]; 0.0313 kg/ha): 4.0 | herbicidal effect rating, SAGPY ([3]; 0.0625 kg/ha): 5.0 | herbicidal effect rating, SAGPY ([3]; 0.1250 kg/ha): 4.0 | herbicidal effect rating, SAGPY ([3]; 0.2500 kg/ha): 7.0

Cn1c(C(F)(F)F)cc(=O)n(-c2cc(N=C3SCC(=O)N3Cc3cccc(C(F)(F)F)c3)c(Cl)cc2F)c1=O [Compound 142, 3-{4-Chloro-2-fluoro-5-{{3-[m-(trifluoromethyl)benzyl]-4-oxo-2-thiazolidinylidene}-amino}phenyl}-1-methyl-6-(trifluoromethyl)-2,4(1H,3H)-pyrimidinedione]
herbicidal rating CASOB (CASOB (Sicklepod); rate 0.0156 kg/ha): 0.0 | herbicidal rating CASOB (CASOB (Sicklepod); rate 0.0313 kg/ha): 1.0 | herbicidal rating CASOB (CASOB (Sicklepod); rate 0.0625 kg/ha): 3.0 | Preemergence herbicidal rating GLXMAW [1, 4]: 1.0 | Preemergence herbicidal rating GLXMAW [1, 5]: 0.0 | Preemergence herbicidal rating GLXMAW [1, 6]: 0.0 | Preemergence herbicidal rating GLXMAW [1, 7]: 0.0 | Preemergence herbicidal rating GLXMAW [1, 8]: 1.0 | Preemergence herbicidal rating ORYSAT (ORYSAT (Rice, Tebonnet); [4]): 0.0 | Preemergence herbicidal rating ORYSAT (ORYSAT (Rice, Tebonnet); [5]): 0.0 | Preemergence herbicidal rating ORYSAT (ORYSAT (Rice, Tebonnet); [6]): 0.0 | Preemergence herbicidal rating ORYSAT (ORYSAT (Rice, Tebonnet); [7]): 1.0 | Preemergence herbicidal rating ORYSAT (ORYSAT (Rice, Tebonnet); [8]): 0.0 | Preemergence herbicidal rating TRZAWR [2, 4]: 0.0 | Preemergence herbicidal rating TRZAWR [2, 5]: 0.0 | Preemergence herbicidal rating TRZAWR [2, 6]: 0.0 | Preemergence herbicidal rating TRZAWR [2, 7]: 0.0 | Preemergence herbicidal rating TRZAWR [2, 8]: 0.0 | herbicidal effect rating, SAGPY ([3]; 0.0313 kg/ha): 0.0 | herbicidal effect rating, SAGPY ([3]; 0.0625 kg/ha): 0.0 | herbicidal effect rating, SAGPY ([3]; 0.1250 kg/ha): 0.0 | herbicidal effect rating, SAGPY ([3]; 0.2500 kg/ha): 2.0
